From publication PMC4599074 (Drug Design, Development and Therapy, 2015)

Tests used:
MAO-A [1] = biological target: T1, MAO-A (Homo sapiens, UniProt P21397); experiment: biochemical
T1 sequence (P21397 1-527): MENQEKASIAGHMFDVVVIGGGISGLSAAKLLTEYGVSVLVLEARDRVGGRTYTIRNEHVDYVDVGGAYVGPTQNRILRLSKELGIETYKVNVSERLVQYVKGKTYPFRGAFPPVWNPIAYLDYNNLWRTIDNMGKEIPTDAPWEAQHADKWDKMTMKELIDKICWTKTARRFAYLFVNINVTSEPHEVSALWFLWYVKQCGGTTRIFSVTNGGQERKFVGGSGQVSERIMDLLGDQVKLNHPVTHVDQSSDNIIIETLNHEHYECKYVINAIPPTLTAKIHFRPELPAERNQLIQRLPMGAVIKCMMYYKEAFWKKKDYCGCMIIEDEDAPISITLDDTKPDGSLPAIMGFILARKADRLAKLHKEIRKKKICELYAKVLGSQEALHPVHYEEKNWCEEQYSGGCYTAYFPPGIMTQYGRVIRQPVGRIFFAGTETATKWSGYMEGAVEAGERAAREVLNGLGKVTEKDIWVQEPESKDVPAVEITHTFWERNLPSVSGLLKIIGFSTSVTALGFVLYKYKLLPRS

MAO-B [2] = biological target: T2, MAO-B (Homo sapiens, UniProt P27338); settings: for SI (selectivity index for the MAO-B isoform): ratio IC50 (MAO-A)/IC50 (MAO-B)
T2 sequence (P27338 1-520): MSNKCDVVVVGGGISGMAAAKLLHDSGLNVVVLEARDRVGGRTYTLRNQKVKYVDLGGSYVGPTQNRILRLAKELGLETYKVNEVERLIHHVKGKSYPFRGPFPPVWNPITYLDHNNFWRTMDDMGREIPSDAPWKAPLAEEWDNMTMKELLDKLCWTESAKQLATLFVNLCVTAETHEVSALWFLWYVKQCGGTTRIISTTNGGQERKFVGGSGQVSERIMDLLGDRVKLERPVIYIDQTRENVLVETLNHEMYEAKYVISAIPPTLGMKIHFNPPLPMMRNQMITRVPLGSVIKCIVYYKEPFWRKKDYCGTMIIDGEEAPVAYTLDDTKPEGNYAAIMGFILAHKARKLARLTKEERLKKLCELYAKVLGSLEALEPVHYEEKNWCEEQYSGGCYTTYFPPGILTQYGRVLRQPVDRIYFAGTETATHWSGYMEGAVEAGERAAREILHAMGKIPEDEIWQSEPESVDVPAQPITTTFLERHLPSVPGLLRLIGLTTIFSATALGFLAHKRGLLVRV

MAO-B [3] = biological target: T2, MAO-B; experiment: biochemical
MAO-B [4] = biological target: T2, MAO-B; experiment: Reversibility of MAO-B inhibition by dialysis of enzyme/inhibitor mixtures; assay type: biochemical; settings: for residual MAO-B activity after dialysis (% of negative control): combined with MAO-B 15 minutes, dialyzed 24 hours, 5g at 4× IC50
MAO-B [5] = biological target: T2, MAO-B; experiment: Lineweaver–Burk plots, mode of inhibition and Ki for MAO-B; settings: Ki for the inhibition of MAO-B, global (shared) fitting to the Michaelis–Menten equation, r2 = 0.99
MAO-A [6] = biological target: T1, MAO-A; settings: from IC50 values
MAO-A [7] = biological target: T1, MAO-A; experiment: Reversibility of MAO-A inhibition by dialysis of enzyme/inhibitor mixtures; settings: for residual MAO-A activity after dialysis (% of negative control): combined with MAO-A 15 minutes, dialyzed 24 hours
MAO-B [8] = biological target: T2, MAO-B; settings: read-out: Km for oxidation by MAO-B; substrate Km, previous studies; cited from earlier work
MAO-A [9] = biological target: T1, MAO-A; settings: read-out: Km for oxidation by MAO-A; substrate Km, previous studies; cited from earlier work
[10] = undialyzed, inhibitor at 4× IC50

Row | Molecule | IC50 (MAO-A [1]) [nM] | SI (selectivity index for the MAO-B isoform) (MAO-B [2]) | IC50 (MAO-B [3]) [nM] | further results
1 | O=C1COc2cc(OCc3ccccc3)ccc21 [5a, 6-(Benzyloxy)-2H-1-benzofuran-3-one] | 26700 ± 351 | 431 | 62 ± 11 | –
2 | O=C1COc2cc(OCc3ccc(F)cc3)ccc21 [5b, 6-(4-Fluorobenzyloxy)-2H-1-benzofuran-3-one] | 11400 ± 2540 | 518 | 22 ± 3 | –
3 | O=C1COc2cc(OCc3cccc(F)c3)ccc21 [5c, 6-(3-Fluorobenzyloxy)-2H-1-benzofuran-3-one] | 80700 ± 9220 | 593 | 136 ± 30 | –
4 | O=C1COc2cc(OCc3ccc(Cl)cc3)ccc21 [5d, 6-(4-Chlorobenzyloxy)-2H-1-benzofuran-3-one] | 2190 ± 135 | 115 | 19 ± 7 | –
5 | O=C1COc2cc(OCc3cccc(Cl)c3)ccc21 [5e, 6-(3-Chlorobenzyloxy)-2H-1-benzofuran-3-one] | 18700 ± 7820 | 1,558 | 12 ± 3 | –
6 | O=C1COc2cc(OCc3ccc(Br)cc3)ccc21 [5f, 6-(4-Bromobenzyloxy)-2H-1-benzofuran-3-one] | 2800 ± 79 | 175 | 16 ± 3 | –
7 | O=C1COc2cc(OCc3cccc(Br)c3)ccc21 [5g, 6-(3-Bromobenzyloxy)-2H-1-benzofuran-3-one] | 3920 ± 827 | 980 | 4 ± 1 | residual MAO-B activity after dialysis (% of negative control) (MAO-B [4]): 87%; reversibility of MAO-B inhibition (MAO-B [4]; dialysis 24 hours): reversible MAO-B inhibitor; residual MAO-B activity of undialyzed mixtures (% of negative control) (MAO-B [4]; [10]): 42%; fold more potent MAO-B inhibitor than lazabemide (MAO-B [2]; from IC50 values): 22 fold; Ki (MAO-B [5]): 3.4 ± 0.3 nM
8 | O=C1COc2cc(OCc3ccc(I)cc3)ccc21 [5h, 6-(4-Iodobenzyloxy)-2H-1-benzofuran-3-one] | > 100000 | – | 28 ± 6 | –
9 | O=C1COc2cc(OCc3cccc(I)c3)ccc21 [5i, 6-(3-Iodobenzyloxy)-2H-1-benzofuran-3-one] | 7570 ± 1820 | 1,081 | 7 ± 1 | –
10 | N#Cc1ccc(COc2ccc3c(c2)OCC3=O)cc1 [5j, 6-(4-Cyanobenzyloxy)-2H-1-benzofuran-3-one] | 5010 ± 919 | 63 | 79 ± 19 | –
11 | N#Cc1cccc(COc2ccc3c(c2)OCC3=O)c1 [5k, 6-(3-Cyanobenzyloxy)-2H-1-benzofuran-3-one] | 586 ± 133 | 3.5 | 166 ± 15 | fold more potent MAO-A inhibitor than toloxatone (MAO-A [6]): sixfold; residual MAO-A activity after dialysis (% of negative control) (MAO-A [7]; inhibitor at 4× IC50): 109%; reversibility of MAO-A inhibition (MAO-A [7]; dialysis 24 hours): reversible; residual MAO-A activity of undialyzed mixtures (% of negative control) (MAO-A [7]; [10]): 65%
12 | Cc1ccc(COc2ccc3c(c2)OCC3=O)cc1 [5l, 6-(4-Methylbenzyloxy)-2H-1-benzofuran-3-one] | > 100000 | >1,852 | 54 ± 11 | –
13 | Cc1cccc(COc2ccc3c(c2)OCC3=O)c1 [5m, 6-(3-Methylbenzyloxy)-2H-1-benzofuran-3-one] | 62000 ± 16900 | 646 | 96 ± 3 | –
14 | O=C1COc2cc(OCc3ccc(C(F)(F)F)cc3)ccc21 [5n, 6-[4-(Trifluoromethyl)benzyloxy]-2H-1-benzofuran-3-one] | > 100000 | >2,564 | 39 ± 5 | –
15 | O=C1COc2cc(OCCc3ccccc3)ccc21 [5o, 6-(2-Phenylethoxy)-2H-1-benzofuran-3-one] | 13800 ± 2110 | 129 | 107 ± 10 | –
16 | O=C1COc2cc(OCCCc3ccccc3)ccc21 [5p, 6-(3-Phenylpropoxy)-2H-1-benzofuran-3-one] | 11800 ± 930 | 215 | 55 ± 8 | –
17 | O=C1COc2cc(OCCOc3ccccc3)ccc21 [5q, 6-(2-Phenoxyethoxy)-2H-1-benzofuran-3-one] | > 100000 | >2,000 | 50 ± 6 | –
18 | O=C1COc2cc(OCCc3ccc(Br)cc3)ccc21 [5r, 6-[2-(4-Bromophenyl)ethoxy]-2H-1-benzofuran-3-one] | 2650 ± 629 | 4.7 | 564 ± 49 | –
19 | Cc1ccc(CCOc2ccc3c(c2)OCC3=O)cc1 [5s, 6-[2-(4-Methylphenyl)ethoxy]-2H-1-benzofuran-3-one] | 11300 ± 683 | 11 | 1050 ± 147 | –
20 | Cc1cccc(CCOc2ccc3c(c2)OCC3=O)c1 [5t, 6-[2-(3-Methylphenyl)ethoxy]-2H-1-benzofuran-3-one] | 25900 ± 8720 | 143 | 181 ± 21 | –
21 | O=C1COc2cc(O)ccc21 [compound 6, 6-Hydroxy-3-coumaranone, reference compound] | > 100000 | – | 12000 ± 4210 | fold weaker as MAO-B inhibitor compared to 5a (MAO-B [2]; from IC50 values): 193 fold
22 | NCCC(=O)c1ccccc1N [kynuramine] | – | – | – | Km (MAO-B [8]): 29 µM; Km (MAO-A [9]): 41 µM
23 | C#CCN(C)Cc1ccccc1 [pargyline, reference compound] | – | – | – | residual MAO-A activity after dialysis (% of negative control) (MAO-A [7]; inhibitor at 4× IC50): 1.6%
24 | (R)-deprenyl [reference compound] | – | – | – | residual MAO-B activity after dialysis (% of negative control) (MAO-B [4]): 3.1%
